Where two headings read alike, the source gives them in different places.
Key:
human capsaicin receptor = molecular target: T1, human capsaicin receptor (Homo sapiens, UniProt Q8NER1); assay: Capsaicin receptor binding assay ([3H]RTX competition)
T1 construct: expression consrtuct encoding the full length human capsaicin receptor; expressed in transfected cells
From the text: Capsaicin Receptor Binding Assay
The following assay is a standard assay of capsaicin receptor binding that may be used to determine the binding affinity of compounds for the capsaicin (VR1) receptor.
Materials. [^3H]Resiniferatoxin (RTX; 37 Ci/mmol) was synthesized by and obtained from the Chemical Synthesis and Analysis Laboratory, National Cancer Institute-Frederick Cancer Research and Development Center, Frederick, MD. [^3H] […] Nonradioactive RTX may be purchased from Alexis Corp. (San Diego, Calif.) and capsazepine from RBI (Natick, Mass).
Cell Culture. […] These transfected cells are selected for two weeks in media containing G418 (400 ug/ml) and then maintained as a pool of stably transfected cells.
pUHG102 VR1 expression plasmids are transfected into Chinese Hamster Ovary (CHO) cells containing the pTet Off Regulator plasmid (Clontech). In these cells, expression of the pUHG plasmid is repressed in the presence of tetracycline but is induced upon removal of the antibiotic. Stable clones are isolated in culture medium containing puromycin (10 ug/ml) and maintained in medium supplemented with tetracycline (1 ug/ml) Cells utilized for assays are grown in culture medium without antibiotic for 48-72 hours prior to use. For radioligand binding experiments, cells are seeded in T175 cell culture flasks in media without antibiotics and grown to approximately 90% confluency. The flasks are then washed with PBS and harvested in PBS containing 5 mM EDTA. The cells are pelleted by gentle centrifugation and stored at −80° C. until assayed.
Previously frozen cells are disrupted with the aid of a tissue homogenizer in ice-cold HEPES homogenization buffer (5mM KCl 5, 5.8mM NaCl, 0.75mM CaCl2, 2mM MgCl2, 320 mM sucrose, and 10 mM HEPES pH 7.4). Tissue homogenates are first centrifuged for 10 min at 1000×g (4° C.) to remove the nuclear fraction and debris and then the supernatant from the first centrifugation is further centrifuged for 30 min at 35,000×g (4° C.) to obtain a partially purified membrane fraction. Membranes are resuspended in the HEPES homogenization buffer prior to being assayed. An aliquot of this membrane homogenate is used to determine protein concentration via the Bradford method (BIO-RAD Protein Assay Ki t, #500-0001, BIO-RAD, Hercules, Calif.).
Binding assay mixtures were set up on ice and contained [^3H]RTX (specific activity 2200 mCi/ml), 2 ul non-radioactive ligands test compound, 0.25 mg/ml bovine serum albumin (Cohn fraction V), and 5×10^4−1×10^5 VR1-transfected cells. The final volume was adjusted to 500 ul (competition binding assays) or 1,000 ul (saturation binding assays) with the ice-cold HEPES homogenization buffer solution (pH 7.4) described above. Non-specific binding was defined as that occurring in the presence of 1 uM non-radioactive RTX. For saturation binding, [^3H]RTX was added in the concentration range of 7 - 1,000 pM, using 1 to 2 dilutions. Typically 11 concentration points are collected per saturation binding curve.
Competition binding assays were performed in the presence of 60 pM [^3H]RTX and various concentrations of competing ligands. The binding reactions are initiated by transferring the assay mixtures into a 37° C. water bath and are terminated following a 60 min incubation period by cooling the tubes on ice. Membrane-bound RTX is separated from free, as well as any alpha1-acid glycoprotein-bound RTX, by filtration onto WALLAC glass fiber filters (PERKIN-ELMER, Gaithersburg, Md.) which are pre-soaked with 1.0% PEI (polyethyleneimine) for 2 hours prior to use.

[1] = Sedative effect noted in CFA arthritis model protocol; format: in vivo, rats; conditions: oral dose of 5mg/kg
Method: Male SD rats are injected with […] of CFA (0.1 mg heat killed and dried M. tuberculosis/ml) in the hind paw ([…] on the plantar surface of the paw) essentially as described by Bertorelli R, Corradini L, Rafiq K, Tupper J, Calo G, Ongini E., Br J Pharmacol. 1999 128(6):1252-8 and by Stein C, Millan M J, Herz A. Pharmacol Biochem Behav. 1988 31(2):455-51.
On day 7, animals are treated orally with a compound of the invention, morphine or vehicle (2% vitamin E-TPGS) 1 hour prior to testing.

T1 sequence (Q8NER1 whole entry): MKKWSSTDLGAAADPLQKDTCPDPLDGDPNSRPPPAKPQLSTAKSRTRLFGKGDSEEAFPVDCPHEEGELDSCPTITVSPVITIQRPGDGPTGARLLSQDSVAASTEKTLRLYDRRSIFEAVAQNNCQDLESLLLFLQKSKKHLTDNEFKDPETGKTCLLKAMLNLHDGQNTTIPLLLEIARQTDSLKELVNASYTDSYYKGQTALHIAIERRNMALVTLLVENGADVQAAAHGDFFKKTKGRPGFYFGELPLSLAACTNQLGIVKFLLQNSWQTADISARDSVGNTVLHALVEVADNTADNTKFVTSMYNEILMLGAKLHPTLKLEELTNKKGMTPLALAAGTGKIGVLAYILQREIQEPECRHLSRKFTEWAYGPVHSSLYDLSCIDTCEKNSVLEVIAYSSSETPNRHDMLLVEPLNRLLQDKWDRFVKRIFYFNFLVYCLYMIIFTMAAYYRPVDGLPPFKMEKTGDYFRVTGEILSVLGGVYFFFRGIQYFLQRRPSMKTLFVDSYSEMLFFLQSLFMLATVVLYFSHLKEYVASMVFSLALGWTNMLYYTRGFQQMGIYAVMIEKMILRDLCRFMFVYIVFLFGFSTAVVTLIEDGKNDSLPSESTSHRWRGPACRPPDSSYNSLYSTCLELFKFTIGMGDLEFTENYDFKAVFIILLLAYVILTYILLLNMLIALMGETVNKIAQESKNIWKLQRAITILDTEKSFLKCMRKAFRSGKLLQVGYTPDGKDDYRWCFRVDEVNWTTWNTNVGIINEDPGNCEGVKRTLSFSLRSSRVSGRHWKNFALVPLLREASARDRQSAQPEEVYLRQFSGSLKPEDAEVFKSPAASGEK

Molecule | Ki (human capsaicin receptor; Table II, read-out: Activity) | other results
4-(3-Chloro-2-pyridinyl)-N-[4-(isopropyl)phenyl]-1-piperazinecarboxamide [Compound 14] | < 4 µM | –
CCCCc1ccc(NC(=O)N2CCN(c3ncccc3[N+](=O)[O-])CC2)cc1 [Compound 2, 4-(3-Nitro-2-pyridinyl)-N-[4-(n-butyl)phenyl]-1-piperazinecarboxamide] | < 4 µM | –
COc1cc(CNC(=O)N2CCN(c3ncccc3C(F)(F)F)CC2)ccc1O [Compound 1, 4-(3-Trifluoromethyl-2-pyridinyl)-N-(3-methoxy-4-hydroxyphenylmethyl)-1-piperazinecarboxamide] | – | Ki (human capsaicin receptor; read-out: Capsaicin rececptor Ki): 0.366 µM
Cc1cccnc1C(=O)C=Cc1ccc(C(F)(F)F)cc1 [Compound 10, 1-(3-Methyl-2-pyridinyl)-3-(4-trifluoromethylphenyl)-prop-2-en-1-one] | < 4 µM | –
CCCCc1ccc(NC(=O)N2CCN(c3ncccc3C(F)(F)F)CC2)cc1 [Compound 3, 4-(3-Trifluoromethyl-2-pyridinyl)-N-[4-(n-butyl)phenyl]-1-piperazinecarboxamide] | < 4 µM | –
CN1CC[C@]23c4c5ccc(O)c4O[C@H]2[C@@H](O)C=C[C@H]3[C@H]1C5 [morphine] | – | sedative effects [1]: has sedative effects
CC(C)c1ccc(C=CC(=O)c2ncccc2C(F)(F)F)cc1 [Compound 11, 1-(3-Trifluoromethyl-2-pyridinyl)-3-(4-isopropylphenyl)-prop-2-en-1-one] | < 4 µM | –
CC(C)c1ccc(NC(=O)N2CCN(c3ncc(C(F)(F)F)cc3Cl)CC2)cc1 [Compound 7, 4-(3-Chloro-5-trifluoromethyl-2-pyridinyl)-N-[4-(isopropyl)phenyl]-1-piperazinecarboxamide] | < 4 µM | –
CC(C)c1ccc(NC(=O)N2CCN(c3ncccc3C#N)CC2)cc1 [Compound 12, 4-(3-Cyano-2-pyridinyl)-N-[4-(isopropyl)phenyl]-1-piperazinecarboxamide] | – | Ki (human capsaicin receptor): < 4 µM
CC(C)c1ccc(NC(=O)N2CCN(c3ncc(Cl)cc3Cl)CC2)cc1 [Compound 9, 4-(3,5-Dichloro-2-pyridinyl)-N-[4-(isopropyl)phenyl]-1-piperazinecarboxamide] | < 4 µM | –
CC(C)c1ccc(NC(=O)N2CCN(c3ncccc3Cl)CC2)cc1 [Compound 8, 4-(3-Chloro-2-pyridinyl)-N-[4-(isopropyl)phenyl]-1-piperazinecarboxamide] | < 4 µM | –
CC(C)c1ccc(NC(=S)N2CCN(c3ncccc3Cl)C[C@H]2C)cc1 (stereo in doubt) [Example 7, 4-(3-Chloro-pyridin-2-yl)-2-methyl-piperazine-1-carbothioic acid (4-isopropyl-phenyl)-amide] | – | melting point: 49 to 51 °C
Cc1cccnc1N1CCN(C(=O)Nc2ccc(C(C)C)cc2)CC1 [Compound 4, 4-(3-Methyl-2-pyridinyl)-N-[4-(isopropyl)phenyl]-1-Piperazinecarboxamide] | < 4 µM | –

Source: patent US20020132853A1, “Capsaicin receptor ligands” (priority 2000, published 2002)
